Drawing on the NIST ThermoML archive (doi:10.1021/acs.jced.6b00688), this text covers viscosity, mass density and Normal melting temperature for 4 compounds.

± gives the expanded uncertainty stated by the source.

As a reminder, the viscosity is the internal friction of a fluid under shear. Broadly, the mass density is the mass of a sample divided by its volume.

The conditions of this data set: for viscosity / mass density: 101.33 kPa, Liquid; for viscosity: Falling or rolling sphere viscometry; for mass density: Vibrating tube method; for Normal melting temperature: Crystal, DTA.

On to `CCCCCCCCCCCC` [dodecane], for which the Normal melting temperature is -8.20 ± 6 °C. In addition, for the setting “293.15 K”, the viscosity was determined as 1.485 ± 0.032 mPa·s and the mass density came to 748.82 ± 1.5 kg/m3. For the same compound, where the note is “298.15 K”, the viscosity was found to be 1.359 ± 0.029 mPa·s and the mass density is reported as 745.2 ± 1.5 kg/m3. Where the note is “303.15 K”, the viscosity came out at 1.25 ± 0.027 mPa·s and the mass density was 741.57 ± 1.5 kg/m3. Also, for the setting “308.15 K”, the viscosity is listed as 1.155 ± 0.025 mPa·s and the mass density stood at 737.94 ± 1.5 kg/m3. Further, under “313.15 K”, the viscosity came to 1.073 ± 0.023 mPa·s and the mass density is 734.3 ± 1.5 kg/m3. Further, under “318.15 K”, the viscosity was found to be 0.998 ± 0.022 mPa·s and the mass density is listed as 730.64 ± 1.5 kg/m3. For the setting “323.15 K”, the viscosity was found to be 0.932 ± 0.02 mPa·s and the mass density was found to be 726.98 ± 1.5 kg/m3. Also, where the note is “328.15 K”, the viscosity stood at 0.873 ± 0.019 mPa·s and the mass density was 723.31 ± 1.5 kg/m3. Further, where the note is “333.15 K”, the viscosity is 0.819 ± 0.018 mPa·s and the mass density turned out to be 719.64 ± 1.4 kg/m3.

For `CCCCCCCO` [heptan-1-ol], the Normal melting temperature was -34.10 ± 6 °C. For the same compound, for the setting “293.15 K”, the viscosity is 6.89 ± 0.15 mPa·s and the mass density is on record as 822.24 ± 1.6 kg/m3. For the setting “298.15 K”, the viscosity is 5.805 ± 0.12 mPa·s and the mass density was 818.74 ± 1.6 kg/m3. Also, for the setting “303.15 K”, the viscosity was 4.941 ± 0.11 mPa·s and the mass density worked out at 815.22 ± 1.6 kg/m3. For the same compound, under “308.15 K”, the viscosity amounted to 4.233 ± 0.09 mPa·s and the mass density was 811.68 ± 1.6 kg/m3. In addition, under “313.15 K”, the viscosity turned out to be 3.648 ± 0.077 mPa·s and the mass density came out at 808.11 ± 1.6 kg/m3. In addition, for the setting “318.15 K”, the viscosity stood at 3.165 ± 0.067 mPa·s and the mass density was 804.52 ± 1.6 kg/m3. For the same compound, where the note is “323.15 K”, the viscosity came to 2.762 ± 0.059 mPa·s and the mass density is 800.88 ± 1.6 kg/m3. Where the note is “328.15 K”, the viscosity came out at 2.423 ± 0.051 mPa·s and the mass density came out at 797.2 ± 1.6 kg/m3. For the setting “333.15 K”, the viscosity stood at 2.137 ± 0.045 mPa·s and the mass density is listed as 793.49 ± 1.6 kg/m3.

For `OCC1CCCCC1` [cyclohexylmethanol], the viscosity was determined as 36.96 ± 0.79 mPa·s (293.15 K); 28.35 ± 0.61 mPa·s (298.15 K); 22.04 ± 0.47 mPa·s (303.15 K); 17.32 ± 0.37 mPa·s (308.15 K); 13.83 ± 0.3 mPa·s (313.15 K); 11.14 ± 0.24 mPa·s (318.15 K). The viscosity (323.15 K) is recorded as 9.099 ± 0.2 mPa·s, the viscosity (328.15 K) is 7.521 ± 0.16 mPa·s and the viscosity (333.15 K) is listed as 6.283 ± 0.14 mPa·s. The mass density (293.15 K) was 929.96 ± 1.9 kg/m3; the mass density (298.15 K) worked out at 926.43 ± 1.9 kg/m3; the mass density (303.15 K) is 922.87 ± 1.9 kg/m3; the mass density (308.15 K) was determined as 919.28 ± 1.8 kg/m3; the mass density (313.15 K) turned out to be 915.66 ± 1.8 kg/m3; the mass density (318.15 K) is listed as 912 ± 1.8 kg/m3. The mass density reads like this: (323.15 K) 908.31 ± 1.8 kg/m3; (328.15 K) 904.57 ± 1.8 kg/m3; (333.15 K) 900.78 ± 1.8 kg/m3.

On to `CC1CCCCC1` [methylcyclohexane], for which the Normal melting temperature is -125.30 ± 6 °C. Besides, under “293.15 K”, the viscosity came to 0.727 ± 0.016 mPa·s and the mass density is 769.33 ± 1.5 kg/m3. Where the note is “298.15 K”, the viscosity is listed as 0.681 ± 0.015 mPa·s and the mass density came out at 765 ± 1.5 kg/m3. Also, for the setting “303.15 K”, the viscosity came to 0.64 ± 0.014 mPa·s and the mass density was 760.67 ± 1.5 kg/m3. Where the note is “308.15 K”, the viscosity was 0.604 ± 0.013 mPa·s and the mass density was 756.32 ± 1.5 kg/m3. For the setting “313.15 K”, the viscosity came out at 0.571 ± 0.012 mPa·s and the mass density stood at 751.95 ± 1.5 kg/m3. In addition, for the setting “318.15 K”, the viscosity amounted to 0.542 ± 0.012 mPa·s and the mass density is 747.56 ± 1.5 kg/m3. Where the note is “323.15 K”, the viscosity is recorded as 0.515 ± 0.011 mPa·s and the mass density is listed as 743.15 ± 1.5 kg/m3. For the setting “328.15 K”, the viscosity is recorded as 0.491 ± 0.011 mPa·s and the mass density is on record as 738.73 ± 1.5 kg/m3. Further, for the setting “333.15 K”, the viscosity stood at 0.469 ± 0.01 mPa·s and the mass density turned out to be 734.28 ± 1.5 kg/m3.
